A short description of series [1]: activity coefficient (dimensionless); of the first substance listed, at infinite dilution; xn = mol fraction of the nth substance listed. The note with it: 298.15 K; 101.33 kPa; Liquid; Chromatography; x1 = 0.
The conditions of series [2]: Crystal; visual observation.

Numbers after ± are expanded uncertainties.

`CC(Cl)CCl` (stereo unspecified) [1,2-dichloropropane] + CCCCCOC(C)=O: the activity coefficient in series [1] worked out at 0.61 ± 0.03.

On to `O=C(C(=O)c1ccccc1)c1ccccc1` [1,2-diphenylethanedione], for which, in series [2], the Normal melting temperature was found to be 95.4 ± 1.1 °C.

In the case of `Cc1cccc(C)c1` [1,3-dimethylbenzene] + CCCCCOC(C)=O, the activity coefficient in series [1] was 0.9 ± 0.03.

As to `Cc1ccc(C)cc1` [1,4-dimethylbenzene] + CCCCCOC(C)=O, in series [1], the activity coefficient worked out at 0.92 ± 0.03.

`C1COCCO1` [1,4-dioxane] + CCCCCOC(C)=O: the activity coefficient in series [1] turned out to be 0.91 ± 0.03.

As for `C=CCCCCC=C` [1,7-octadiene] + CCCCCOC(C)=O, the activity coefficient in series [1] was found to be 1.14 ± 0.05.

Regarding `CCCCCl` [1-chlorobutane] + CCCCCOC(C)=O, the activity coefficient in series [1] is 0.84 ± 0.03.

On to `C=CCCCCC` [1-heptene] + CCCCCOC(C)=O, for which the activity coefficient in series [1] is 1.35 ± 0.04.

Regarding `C#CCCCCCC` [1-octyne] + CCCCCOC(C)=O, the activity coefficient in series [1] turned out to be 0.85 ± 0.03.

Take `CC(C)Br` [2-bromopropane] + CCCCCOC(C)=O: the activity coefficient in series [1] is 0.82 ± 0.03.

As for `O=C(O)c1cc([N+](=O)[O-])ccc1Cl` [2-chloro-5-nitrobenzoic acid], in series [2], the Normal melting temperature stood at 167.0 ± 1.1 °C.

As for `O=C(O)c1ccccc1O` [2-hydroxybenzoic acid], in series [2], the Normal melting temperature was 159.6 ± 1.1 °C.

Consider `Cc1cccc(C(=O)O)c1` [3-methylbenzoic acid], for which the Normal melting temperature in series [2] is 109.2 ± 0.9 °C.

On to `O=C(O)c1cccc([N+](=O)[O-])c1` [3-nitrobenzoic acid], for which the Normal melting temperature in series [2] is 141.6 ± 0.9 °C.

`O=C(O)c1ccc(Cl)c([N+](=O)[O-])c1` [4-chloro-3-nitrobenzoic acid]: the Normal melting temperature in series [2] stood at 183.2 ± 1.1 °C.

As to `c1ccc2c(c1)Nc1ccccc1S2` [10H-phenothiazine], in series [2], the Normal melting temperature is 184.8 ± 0.7 °C.

As for `CC(C)=O` [acetone] + CCCCCOC(C)=O, the activity coefficient in series [1] was 1.19 ± 0.05.

On to `CC#N` [acetonitrile] + CCCCCOC(C)=O, for which, in series [1], the activity coefficient was 1.69 ± 0.05.

Take `c1ccccc1` [benzene] + CCCCCOC(C)=O: in series [1], the activity coefficient was determined as 0.73 ± 0.03.

Turning to `O=C(O)c1ccccc1` [benzoic acid], the Normal melting temperature in series [2] worked out at 122.5 ± 0.9 °C.

On to `Brc1ccccc1` [bromobenzene] + CCCCCOC(C)=O, for which the activity coefficient in series [1] was 0.78 ± 0.05.

In the case of `C1CCCCC1` [cyclohexane] + CCCCCOC(C)=O, in series [1], the activity coefficient was determined as 1.51 ± 0.05.

On to `C1=CCCCC1` [cyclohexene] + CCCCCOC(C)=O, for which, in series [1], the activity coefficient is 1.16 ± 0.03.

Turning to `CCCCCCCCCC` [decane] + CCCCCOC(C)=O, the activity coefficient in series [1] was found to be 2.5 ± 0.13.

Take `O=S(=O)(c1ccccc1)c1ccccc1` [diphenyl sulfone]: the Normal melting temperature in series [2] came to 125.1 ± 0.9 °C.

For the molecule `CCO` [ethanol] + CCCCCOC(C)=O, in series [1], the activity coefficient is 2.97 ± 0.12.

Regarding `CCOC(C)=O` [ethyl acetate] + CCCCCOC(C)=O, the activity coefficient in series [1] was found to be 0.96 ± 0.03.

Turning to `CCc1ccccc1` [ethylbenzene] + CCCCCOC(C)=O, the activity coefficient in series [1] stood at 0.98 ± 0.04.

As for `Fc1ccccc1` [fluorobenzene] + CCCCCOC(C)=O, the activity coefficient in series [1] is 0.61 ± 0.03.

Turning to `CCCCCCC` [heptane] + CCCCCOC(C)=O, the activity coefficient in series [1] came out at 1.9 ± 0.1.

For `C=CCCCC` [hex-1-ene] + CCCCCOC(C)=O, in series [1], the activity coefficient was 1.22 ± 0.03.

Regarding `CCCCCC` [hexane] + CCCCCOC(C)=O, the activity coefficient in series [1] worked out at 1.74 ± 0.1.

Take `C[N+](=O)[O-]` [nitromethane] + CCCCCOC(C)=O: in series [1], the activity coefficient was 1.28 ± 0.05.

`CCCCCCCCC` [nonane] + CCCCCOC(C)=O: the activity coefficient in series [1] was found to be 2.17 ± 0.14.

`CCCCCCCC` [octane] + CCCCCOC(C)=O: the activity coefficient in series [1] stood at 2.02 ± 0.09.

With `CCCO` [propan-1-ol] + CCCCCOC(C)=O, in series [1], the activity coefficient worked out at 2.43 ± 0.11.

As for `CC(C)O` [propan-2-ol] + CCCCCOC(C)=O, in series [1], the activity coefficient came out at 2.86 ± 0.11.

Take `CCCc1ccccc1` [propylbenzene] + CCCCCOC(C)=O: the activity coefficient in series [1] amounted to 1.02 ± 0.06.

For the molecule `C1CCOC1` [tetrahydrofuran] + CCCCCOC(C)=O, the activity coefficient in series [1] was 0.8 ± 0.04.

For `Cc1ccccc1` [toluene] + CCCCCOC(C)=O, the activity coefficient in series [1] amounted to 0.86 ± 0.04.

As to `ClC(Cl)Cl` [trichloromethane] + CCCCCOC(C)=O, the activity coefficient in series [1] came to 0.27 ± 0.03.

The values above are taken from the NIST ThermoML archive (doi:10.1016/j.jct.2018.05.003).
